Where two headings read alike, the source gives them in different places. Starred links: 1 amine or outer side, 2 acyl side, 3 side chain; linkers in the order of their positions; H or OH if unused. Non-standard residues stand in square brackets, D forms with d. Residues, ends and D or L forms follow the SMILES beside them. Groups on a side chain read outwards from the residue. *: point of attachment. Malonyl(2,2-Me2,histaminyl) = CC(C)(C(=O)NCCc1cnc[nH]1)C(=O)*; Ala(1H-tetrazol-5-yl) = N[C@@H](Cc1nnn[nH]1)C(=O)O; C18 diacid = O=C(O)CCCCCCCCCCCCCCCCC(=O)*; γGlu = O=C(O)[C@H](CCC(=O)[*:2])N[*:1]; Lauroyl = CCCCCCCCCCCC(=O)*; Nle = CCCC[C@H](N)C(=O)O; AEEA = NCCOCCOCC(=O)O; Aib = CC(C)(N)C(=O)O; Alloc = C=CCOC(=O)*; βAla = NCCC(=O)O
Columns and labels:
human GLP1 receptor = biological target: T1, human GLP1 receptor (Homo sapiens, UniProt P43220); assay: cAMP accumulation assay (HTRF), functional agonism of human GLP1 receptor in HEK cells; assay type: cell-based; details: for EC50: read-out: Human GLP-1R agonist cAMP pEC50 (converted)
T1 construct: expressed in transfected cells; host or cells: HEK cells, BacMam virus transduction
T1 sequence (P43220 24-463): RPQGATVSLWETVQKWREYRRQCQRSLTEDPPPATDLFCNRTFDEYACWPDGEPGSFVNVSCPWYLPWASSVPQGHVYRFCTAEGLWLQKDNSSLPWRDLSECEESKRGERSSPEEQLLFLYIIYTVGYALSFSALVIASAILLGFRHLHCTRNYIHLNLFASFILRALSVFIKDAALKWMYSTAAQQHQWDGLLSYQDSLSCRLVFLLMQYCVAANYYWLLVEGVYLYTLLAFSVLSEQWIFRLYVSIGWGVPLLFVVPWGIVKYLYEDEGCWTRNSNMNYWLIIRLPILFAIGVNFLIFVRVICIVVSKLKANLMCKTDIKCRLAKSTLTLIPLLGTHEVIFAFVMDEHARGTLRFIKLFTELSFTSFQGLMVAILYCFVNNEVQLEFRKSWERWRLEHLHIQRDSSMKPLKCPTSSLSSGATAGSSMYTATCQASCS

human GLP2 receptor = biological target: T2, human GLP2 receptor (Homo sapiens, UniProt O95838); assay: cAMP accumulation assay (HTRF), functional agonism of human GLP2 receptor in HEK cells; details: for Emax: HEK293, read-out: Human GLP-2R agonist cAMP Emax;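 as to all read-outs here: HEK cells transduced via BacMam to express human GLP2 receptor, agonist-stimulated cAMP measured by HTRF after 45 min at 37 °C in HBSS with 0.5 mM IBMX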
T2 sequence (O95838 1-553): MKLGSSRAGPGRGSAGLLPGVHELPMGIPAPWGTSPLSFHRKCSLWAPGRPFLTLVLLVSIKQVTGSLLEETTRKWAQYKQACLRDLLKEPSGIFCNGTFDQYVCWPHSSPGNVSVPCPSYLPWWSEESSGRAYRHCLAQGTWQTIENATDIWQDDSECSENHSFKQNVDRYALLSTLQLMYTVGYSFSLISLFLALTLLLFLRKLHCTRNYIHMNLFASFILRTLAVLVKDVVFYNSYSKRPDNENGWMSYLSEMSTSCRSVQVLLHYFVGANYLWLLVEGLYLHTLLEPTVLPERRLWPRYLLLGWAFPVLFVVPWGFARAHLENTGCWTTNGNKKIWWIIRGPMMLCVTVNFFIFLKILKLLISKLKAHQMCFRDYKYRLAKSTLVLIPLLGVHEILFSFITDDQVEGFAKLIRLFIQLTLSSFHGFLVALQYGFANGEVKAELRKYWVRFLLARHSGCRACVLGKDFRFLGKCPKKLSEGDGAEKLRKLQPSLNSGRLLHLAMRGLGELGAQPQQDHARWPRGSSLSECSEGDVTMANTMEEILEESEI

[1] = HEK293, HEK cells, human GLP1 receptor BacMam, 45 min 37° C., read-out: Human GLP-1R agonist cAMP Emax
[2] = HEK cells, human GLP1 receptor BacMam, 45 min 37° C.

Emax (human GLP1 receptor; [1]) [%]	EC50 (human GLP1 receptor; [2]) [nM]	EC50 (human GLP2 receptor) [nM]	Emax (human GLP2 receptor) [%]	Compound	Emax (human GLP1 receptor; HEK293, read-out: Human GLP-1R agonist cAMP Emax) [%]
96	15.8	0.01	102	C=CCOC(=O)NCCCC[C@H](NC(=O)[C@H](C)NC(=O)C(C)(C)NC(=O)[C@H](CCCCNC(=O)OCC=C)NC(=O)[C@H](CC(C)C)NC(=O)[C@H](CC(=O)O)NC(=O)[C@H](CC(C)C)NC(=O)C(C)(C)NC(=O)[C@@H](NC(=O)[C@@H](Cc1ccccc1)NC(=O)[C@H](CCCC)NC(=O)[C@H](CCC(=O)O)NC(=O)[C@H](CC(=O)O)NC(=O)[C@H](CO)NC(=O)[C@H](Cc1ccccc1)NC(=O)[C@H](CO)NC(=O)CNC(=O)[C@H](Cc1nn[nH]n1)NC(=O)C(C)(C)C(=O)NCCc1c[nH]cn1)[C@@H](C)O)C(=O)N[C@@H](CC(=O)O)C(=O)N[C@@H](Cc1ccccc1)C(=O)N[C@H](C(=O)N[C@@H](CC(N)=O)C(=O)N[C@@H](Cc1c[nH]c2ccccc12)C(=O)N[C@@H](CC(C)C)C(=O)N[C@H](C(=O)N[C@@H](CCC(N)=O)C(=O)N[C@H](C(=O)N[C@@H](CCCCN)C(=O)N[C@H](C(=O)N[C@H](C(=O)N[C@@H](CC(=O)O)C(N)=O)[C@@H](C)O)[C@@H](C)CC)[C@@H](C)O)[C@@H](C)CC)[C@@H](C)CC [Example 16] ({Malonyl(2,2-Me2,histaminyl)}-[Ala(1H-tetrazol-5-yl)]GSFSDE[Nle][dF]T[Aib]LDLK(Alloc)[Aib]AK(Alloc)DFINWLIQTKITD-NH2)	
87.6	3.16	0.0158	101	CCCC[C@H](NC(=O)[C@H](CCC(=O)O)NC(=O)[C@H](CC(=O)O)NC(=O)[C@H](CO)NC(=O)[C@H](Cc1ccccc1)NC(=O)[C@H](CO)NC(=O)CNC(=O)[C@H](Cc1nn[nH]n1)NC(=O)C(C)(C)C(=O)NCCc1c[nH]cn1)C(=O)N[C@H](Cc1ccccc1)C(=O)N[C@H](C(=O)N[C@H](C(=O)N[C@@H](CC(C)C)C(=O)N[C@@H](CC(=O)O)C(=O)N[C@@H](CC(C)C)C(=O)N[C@@H](CCCCNC(=O)CC[C@H](NC(=O)COCCOCCNC(=O)COCCOCCNC(=O)CCCCCCCCCCCCCCCCC(=O)O)C(=O)O)C(=O)N[C@@H](C)C(=O)N[C@@H](C)C(=O)N[C@@H](CCCCN)C(=O)N[C@@H](CC(=O)O)C(=O)N[C@@H](Cc1ccccc1)C(=O)N[C@H](C(=O)N[C@@H](CC(N)=O)C(=O)N[C@@H](Cc1c[nH]c2ccccc12)C(=O)N[C@@H](CC(C)C)C(=O)N[C@H](C(=O)N[C@@H](CCC(N)=O)C(=O)N[C@H](C(=O)N[C@@H](CCCCN)C(=O)N[C@H](C(=O)N[C@H](C(=O)N[C@@H](CC(=O)O)C(N)=O)[C@@H](C)O)[C@@H](C)CC)[C@@H](C)O)[C@@H](C)CC)[C@@H](C)CC)[C@@H](C)CC)[C@@H](C)O [Example 22] ({Malonyl(2,2-Me2,histaminyl)}-[Ala(1H-tetrazol-5-yl)]GSFSDE[Nle][dF]TILDLK([γGlu-AEEA-AEEA-C18 diacid])AAKDFINWLIQTKITD-NH2)	

Compound	Emax (human GLP1 receptor; [1]) [%]	EC50 (human GLP1 receptor; [2]) [nM]	EC50 (human GLP2 receptor) [nM]	Emax (human GLP2 receptor) [%]	Emax (human GLP1 receptor; HEK293, read-out: Human GLP-1R agonist cAMP Emax) [%]
CCCCCCCCCCCC(=O)NCCC(=O)NCCCC[C@H](NC(=O)[C@H](CC(N)=O)NC(=O)[C@H](CC(=O)O)NC(=O)[C@H](CC(C)C)NC(=O)[C@@H](NC(=O)[C@@H](NC(=O)[C@@H](Cc1ccccc1)NC(=O)[C@H](CCCC)NC(=O)[C@H](CCC(=O)O)NC(=O)[C@H](CC(=O)O)NC(=O)[C@H](CO)NC(=O)[C@H](Cc1ccccc1)NC(=O)[C@H](CO)NC(=O)[C@@H](C)NC(=O)[C@H](Cc1nn[nH]n1)NC(=O)C(C)(C)C(=O)NCCc1c[nH]cn1)[C@@H](C)O)[C@@H](C)CC)C(=O)NC(C)(C)C(=O)N[C@@H](C)C(=O)N[C@@H](CCCCN)C(=O)N[C@@H](CC(=O)O)C(=O)N[C@@H](Cc1ccccc1)C(=O)N[C@H](C(=O)N[C@@H](CC(N)=O)C(=O)N[C@@H](Cc1c[nH]c2ccccc12)C(=O)N[C@@H](CC(C)C)C(=O)N[C@H](C(=O)N[C@@H](CCC(N)=O)C(=O)N[C@H](C(=O)N[C@@H](CCCCN)C(=O)N[C@H](C(=O)N[C@H](C(=O)N[C@@H](Cc1ccccc1)C(N)=O)[C@@H](C)O)[C@@H](C)CC)[C@@H](C)O)[C@@H](C)CC)[C@@H](C)CC [Example 21] ({Malonyl(2,2-Me2,histaminyl)}-[Ala(1H-tetrazol-5-yl)][dA]SFSDE[Nle][dF]TILDNK([βAla-Lauroyl])[Aib]AKDFINWLIQTKITF-NH2; C-terminus assumed)				99.7	91.5
